Measured values from US9528156B2, “Method for determining the predisposition of a patient to changed biotransformation and to the development of undesired drug effects in a treatment of the patient with atrovastatin” (Robert Bosch GmbH, priority 2009, dated 2016).

How the values were obtained:
[1] = target: T1, UGT1A1 (Homo sapiens, UniProt P22309); assay: ATV lactonization by recombinant UGT1A1 (LC-MS); assay type: in vitro ADME; settings: among various recombinant UGT enzymes; substrate 0.6 μM and 6 μM
T1 sequence (P22309 26-533): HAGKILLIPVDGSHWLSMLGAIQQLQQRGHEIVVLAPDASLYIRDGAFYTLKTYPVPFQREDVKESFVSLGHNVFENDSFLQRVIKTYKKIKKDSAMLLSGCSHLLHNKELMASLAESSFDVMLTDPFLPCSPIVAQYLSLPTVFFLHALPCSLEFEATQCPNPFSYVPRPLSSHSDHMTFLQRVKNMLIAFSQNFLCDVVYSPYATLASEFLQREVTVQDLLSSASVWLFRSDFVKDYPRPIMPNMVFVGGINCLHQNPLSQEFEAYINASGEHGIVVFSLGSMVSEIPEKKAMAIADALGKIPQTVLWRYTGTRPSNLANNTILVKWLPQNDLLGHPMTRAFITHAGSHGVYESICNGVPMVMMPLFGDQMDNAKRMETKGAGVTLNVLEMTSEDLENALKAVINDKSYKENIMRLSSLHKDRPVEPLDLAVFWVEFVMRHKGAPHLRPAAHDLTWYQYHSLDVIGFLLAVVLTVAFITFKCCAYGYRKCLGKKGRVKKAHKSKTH
Description: (§1) The reaction is started by addition of 10 mM UDP glucuronic acid, the cosubstrate of the UDP glucuronosyl transferases (UGT). The samples were incubated for 30 minutes. The reaction was stopped by addition of 25 μl of ice-cold 250 mM formic acid in acetonitrile and the vortexed samples were immediately placed on ice. […] The samples were centrifuged for 5 minutes at 13,000 rpm and placed in glass vessels for the LC/MS measurement.
(§2) The samples are separated on an XBridge Shield RP18 3.5 μm column with a C8 precolumn with a 1 mM formic acid and acetonitrile gradient for 23 minutes at 30° C. The masses are detected by HCT Esquire plus mass spectrometer, this being after electrospray ionization of the substances separated by the column.

[2] = target: T2, recombinant UGT1A3 (Homo sapiens, UniProt P35503); settings: among various recombinant UGT enzymes; substrate 0.6 μM and 6 μM
T2 sequence (P35503 29-534): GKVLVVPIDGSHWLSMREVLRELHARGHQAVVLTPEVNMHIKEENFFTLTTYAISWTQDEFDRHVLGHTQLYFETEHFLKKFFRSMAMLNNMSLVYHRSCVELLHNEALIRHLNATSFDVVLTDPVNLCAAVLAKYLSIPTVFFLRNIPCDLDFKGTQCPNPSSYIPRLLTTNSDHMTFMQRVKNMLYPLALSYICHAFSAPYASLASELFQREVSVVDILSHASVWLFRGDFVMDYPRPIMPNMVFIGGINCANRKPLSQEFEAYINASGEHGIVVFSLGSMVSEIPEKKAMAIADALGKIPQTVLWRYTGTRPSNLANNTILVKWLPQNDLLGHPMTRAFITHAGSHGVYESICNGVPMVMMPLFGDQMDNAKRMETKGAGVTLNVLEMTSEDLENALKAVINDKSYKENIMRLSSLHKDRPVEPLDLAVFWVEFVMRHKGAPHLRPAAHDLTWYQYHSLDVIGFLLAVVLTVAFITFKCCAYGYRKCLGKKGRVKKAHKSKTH
Description: as §1, §2

[3] = test system: UGT1A3; settings: human liver microsomes, genotype-phenotype correlation
Description: as §1, §2

Compound: CC(C)c1c(C(=O)Nc2ccccc2)c(-c2ccccc2)c(-c2ccc(F)cc2)n1CC[C@@H](O)C[C@@H](O)CC(=O)O [atorvastatin]
- activity for the catalysis of the ATV lactonization [1]: only low activity
- specific activity for the catalysis of the ATV lactonization [2]: highest specific activity
- activity for ATV lactonization in homozygotic UGT1A3*2 carriers compared to wild type samples [3]: increased twofold
